In one assay the test system is Maus. The assay can be described thus: Porsolt swim test (immobility duration). Type of assay: in vivo.
For assay [1], the system named is transcallosal ausgelöster Potentiale. The assay is described as follows: Influence on transcallosally evoked potentials in awake rats fixed in a stereotactic apparatus. Type of assay: in vivo, weiblichen Wistarratten. To be noted: 1 mg/kg i.p. The source says:
3. Beeinflussung transcallosal ausgelöster Potentiale
Methodik in Anlehnung an C.Giurgea und F.Moyersoons, Arch.Int.Pharmacodyn.199,(1972) 67
Die Untersuchung wurde an wachen, im stereotaktischen Apparat fixierten weiblichen Wistarratten durchgeführt.

The subject of another assay is Vena femoralis. The assay is described as follows: Contraction of isolated human vessel preparations, vein. On the set-up: species or system menschlichen. The source says:
(§1) 6. Untersuchungen an isolierten menschlichen Gefäßpräparaten
(§2) (Vena und Arteria femoralis)
(§3) Glusa, E. und F. Markwardt, Pharmacolgy 24 (1982) 287 sowie Naunyn-Schmiedebergs-Arch. Pharmacol. 323 (1983) 101

In assay [2] the test system is vas deferens des Meerschweinchens. The assay is described as follows: Noradrenaline antagonism on isolated vas deferens. Conditions: Cavia porcellus, read-out: Hemmung (x̄ ± sx̄) in %. The source says:
5. Noradrenalin-Antagonismus
Noradrenalin-Antagonismus am vas deferens des Meerschweinchens

The subject of the next assay is Ratten. The assay is described as follows: SFT test (spinal cord fixation time). The class given is in vivo. An excerpt: 4. SFT-Test (Spinal cord fixation time)
C.Giurgea und F.Mouravieff-Lesmisse Arch.Intern.Pharmacodyn.191 (1971) 279
Es ist die Anzahl der Tiere mit persistierender Asymmetrie zur Gesamtzahl der eingesetzten Ratten aufgeführt.

The next assay deals with Arteria femoralis. The assay is described as follows: Contraction of isolated human vessel preparations, artery. Further details: species or system menschlichen.
Text: as §1, §2, §3

These results are taken from patent publication EP0205068B1, “Lysergic-acid amides, process for their preparation and medicaments containing them” (ARZNEIMITTELWERK DRESDEN GmbH, priority 1985, dated 1986).

Values joined by “and” are separate entries in the source; they are usually repeats but may differ in a detail not shown here. Equal entries are not always repeated.

For the compound `CC(=O)OCCN(CCOC(C)=O)C(=O)[C@@H]1C[C@@H]2c3cccc4[nH]cc(c34)C[C@H]2N(C)C1` [1 a, 9,10-Dihydrolysergsäure-bis-(β-acetoxyethyl)amid], the “Immobilitätsdauer (sec) x̄ ± sx̄” value in the assay with Maus (1 mg/kg i.p.) is listed as 202,6 ± 1,8 sec. In addition, in assay [1] (60'), the “Amplitudenbeeinflussung b.max.Reizintensität neg.Welle” value was 0,40±0,03 µV, the “Amplitudenbeeinflussung b.max.Reizintensität pos.Welle” value is recorded as 0,42±0,03 µV, the “Amplitudenbeeinflussung b.mittl.Reizintensität neg.Welle” value is given as 0,23±0,03 µV and the “Amplitudenbeeinflussung b.mittl.Reizintensität pos.Welle” value is on record as “*0,26±0,03 µV”. Besides, in assay [1] (120'), the “Amplitudenbeeinflussung b.max.Reizintensität neg.Welle” value was “*0,40±0,02 µV”, the “Amplitudenbeeinflussung b.max.Reizintensität pos.Welle” value is given as 0,41±0,02 µV, the “Amplitudenbeeinflussung b.mittl.Reizintensität neg.Welle” value is listed as “*0,25±0,03 µV” and the “Amplitudenbeeinflussung b.mittl.Reizintensität pos.Welle” value is “*0,27±0,03 µV”. In addition, in assay [1] (180'), the “Amplitudenbeeinflussung b.max.Reizintensität neg.Welle” value is reported as 0,39±0,02 µV, the “Amplitudenbeeinflussung b.max.Reizintensität pos.Welle” value is recorded as 0,42±0,02 µV, the “Amplitudenbeeinflussung b.mittl.Reizintensität neg.Welle” value is given as 0,23±0,03 µV and the “Amplitudenbeeinflussung b.mittl.Reizintensität pos.Welle” value was “*0,25±0,02 µV”. In assay [1] (VW = Vorwert (pre-dose value)), the “Amplitudenbeeinflussung b.max.Reizintensität neg.Welle” value is on record as 0,34±0,03 µV, the “Amplitudenbeeinflussung b.max.Reizintensität pos.Welle” value is 0,38±0,03 µV, the “Amplitudenbeeinflussung b.mittl.Reizintensität neg.Welle” value is 0,18±0,02 µV and the “Amplitudenbeeinflussung b.mittl.Reizintensität pos.Welle” value is on record as 0,19±0,02 µV. Also, the “pharmakologisch wertvolle Nebenwirkungen” value with Vena femoralis (statement in words) was “Tonisierung der Venen”. Further, in assay [2] (Konzentration 10^-5 mol/l), the inhibition at 10 µM was determined as 60.7%. For the same compound, the inhibition at 1 µM in assay [2] (Konzentration 10^-6 mol/l) was found to be 14.7%. Moreover, the inhibition at 0.1 µM in assay [2] (Konzentration 10^-7 mol/l) came out at 4.4%. For the same compound, in the assay on Ratten (Dosis ip. 2 mg/kg), the “Anzahl der Tiere mit persistierender Asymmetrie zur Gesamtzahl der eingesetzten Ratten” value was 5/10.

Regarding `CC(=O)OCCN(CCOC(C)=O)C(=O)[C@@H]1C[C@@H]2c3cccc4c3c(cn4C)C[C@H]2N(C)C1` [1 c, 1-Methyl-9,10-dihydrolysergsäure-bis-(ß-acetoxyethyl)-amid], in the assay with Maus (3 mg/kg p.o.), the “Immobilitätsdauer (sec) x̄ ± sx̄” value is on record as 203,6 ± 5,9 sec.

With `CCC(=O)OCCN(CCOC(=O)CC)C(=O)[C@@H]1C[C@@H]2c3cccc4c3c(cn4C)C[C@H]2N(C)C1` [1 e, 1-Methyl-9,10-dihydrolysergsäure-bis-(ß-propionylethyl)-amid], the “Immobilitätsdauer (sec) x̄ ± sx̄” value with Maus (3 mg/kg p.o.) is given as 210,0 ± 3,8 sec.

Turning to `CC(=O)OCCN(CCOC(C)=O)C(=O)[C@@H]1C[C@@H]2c3cccc4c3c(cn4Cc3cccc(F)c3)C[C@H]2N(C)C1` [1 l, 1-(3'-Fluorbenzyl)-9,10-dihydrolysergsäure-bis-(ß-acetoxyethyl)-amid], the “Immobilitätsdauer (sec) x̄ ± sx̄” value in the assay with Maus (1 mg/kg i.p.) is listed as 199,4 ± 2,3 sec.

On to `CN1C[C@H](C(=O)N[C@]2(C)O[C@@]3(O)[C@@H]4CCCN4C(=O)[C@H](Cc4ccccc4)N3C2=O)C[C@@H]2c3cccc4[nH]cc(c34)C[C@H]21` [Dihydro-ergo-tamin], for which the “%-Kontraktion bezogen auf NA” value in the assay with Vena femoralis was 61 ± 24% and 52 ± 18%; with Arteria femoralis, 8,8 ± 8%.

For `CO[C@]12C[C@@H](COC(=O)c3cncc(Br)c3)CN(C)[C@@H]1Cc1cn(C)c3cccc2c13` [Nicergolin, 10a-Methoxy-1,6-dimethyl-ergolin-8ß-methanol-(5'-bromnicotinat), reference compound], in the assay on Maus (1 mg/kg i.p.), the “Immobilitätsdauer (sec) x̄ ± sx̄” value is on record as 196,7 ± 5,6 sec. Besides, the “Amplitudenbeeinflussung b.max.Reizintensität neg.Welle” value is recorded as 0,41±0,03 µV in assay [1] (60'), 0,38±0,02 µV in assay [1] (120'), 0,39±0,04 µV in assay [1] (180') and 0,39±0,02 µV in assay [1] (VW = Vorwert (pre-dose value)). The “Amplitudenbeeinflussung b.max.Reizintensität pos.Welle” value was 0,40±0,02 µV in assay [1] (60'), 0,36±0,02 µV in assay [1] (120'), 0,39±0,04 µV in assay [1] (180') and 0,39±0,02 µV in assay [1] (VW = Vorwert (pre-dose value)). In addition, the “Amplitudenbeeinflussung b.mittl.Reizintensität neg.Welle” value is 0,24±0,02 µV in assay [1] (60'), 0,23±0,02 µV in assay [1] (120'), 0,21±0,01 µV in assay [1] (180') and 0,23±0,02 µV in assay [1] (VW = Vorwert (pre-dose value)). Also, the “Amplitudenbeeinflussung b.mittl.Reizintensität pos.Welle” value in assay [1] (60') was 0,24±0,01 µV; in assay [1] (120') it was 0,22±0,02 µV; in assay [1] (180') it was 0,19±0,02 µV; in assay [1] (VW = Vorwert (pre-dose value)), 0,23±0,02 µV. For the same compound, the “Anzahl der Tiere mit persistierender Asymmetrie zur Gesamtzahl der eingesetzten Ratten” value with Ratten (Dosis ip. 1 mg/kg) was 2/10; with Ratten (Dosis ip. 3 mg/kg), 4/6.
